PMC7289955, “The Role of Dopamine in the Stimulant Characteristics of Novel Psychoactive Substances (NPS)—Neurobiological and Computational Assessment Using the Case of Desoxypipradrol (2-DPMP)” (Frontiers in Pharmacology, 2020)

Biological target: T1, dopamine transporter (DAT) (Rattus norvegicus, UniProt P23977)
T1 construct: gene Slc6a3; native DAT in rat brain sections (nucleus accumbens shell and caudate-putamen)
Test: […]RTI-121 displacement, quantitative autoradiography on rat brain sections

T1 sequence (P23977 whole entry): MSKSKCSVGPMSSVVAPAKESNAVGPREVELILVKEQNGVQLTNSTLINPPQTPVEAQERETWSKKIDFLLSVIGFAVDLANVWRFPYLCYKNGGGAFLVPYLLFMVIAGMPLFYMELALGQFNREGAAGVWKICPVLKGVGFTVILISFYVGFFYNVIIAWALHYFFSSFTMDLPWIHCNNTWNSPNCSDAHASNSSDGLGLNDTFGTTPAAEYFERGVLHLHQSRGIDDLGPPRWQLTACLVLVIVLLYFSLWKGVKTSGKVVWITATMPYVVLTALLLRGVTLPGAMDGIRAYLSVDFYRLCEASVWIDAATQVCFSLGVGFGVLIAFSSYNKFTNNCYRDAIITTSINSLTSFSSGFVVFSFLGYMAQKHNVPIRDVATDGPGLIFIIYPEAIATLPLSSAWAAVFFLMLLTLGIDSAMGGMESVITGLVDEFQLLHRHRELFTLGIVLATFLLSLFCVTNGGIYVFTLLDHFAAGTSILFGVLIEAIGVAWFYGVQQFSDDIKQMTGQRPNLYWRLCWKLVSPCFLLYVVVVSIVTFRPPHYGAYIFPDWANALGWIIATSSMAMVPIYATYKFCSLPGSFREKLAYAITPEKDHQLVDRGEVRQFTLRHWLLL

`c1ccc(C(c2ccccc2)C2CCCCN2)cc1` (stereo not shown) [2-DPMP, 2-diphenylmethylpiperidine] was tested, and the IC50 was 0.565 µM.
